Calls of active or inactive are those of the source. No cut-off for these calls is given here.

For assay [1], the system named is BaF3. The assay can be described thus: Effect on proliferation in BaF3 EPOr cells. The format is functional, cell-based. The following applies: Homo sapiens.
Assay [2] concerns BaF3. In words: Effect on proliferation in wild type BaF3 cells. The format is functional, cell-based. The following applies: Homo sapiens.

For `COc1ccc(C(=O)/C=C/c2ccc(N3C[C@H](CNC(C)=O)OC3=O)cc2)cc1`, the result in assay [1] and in assay [2] was Active.

The values above are taken from ChEMBL document CHEMBL1143780, “Towards erythropoietin mimicking small molecules” (Bioorg Med Chem Lett, 2007).
